Where “and” joins values, the source holds several entries; their conditions need not be identical. Equal values may be shown once. Read-outs that look alike come from different tables or passages of the source. Marks after values point to notes of the source that are not given here.
Legend:
[1] = target: T1, CB1 (rCB1) (Rattus norvegicus, UniProt P20272); assay: Single-point radioligand displacement screen; assay type: binding
[2] = Dynamic light scattering, colloidal aggregation; assay type: physicochemical; conditions: Log[compound, replicates, sheet FigS2b
Protocol: Samples were prepared as 8-point half-log dilutions in filtered 50 mM KPi buffer, pH 7.0 with final DMSO concentration at 1% (v/v). Colloidal particle formation was measured using DynaPro Plate Reader II (Wyatt Technologies). All compounds were screened in triplicate.

[3] = target: AmpC β-lactamase (Escherichia coli, UniProt P00811); assay type: biochemical; conditions: Rep 1-3 mean; sheet FigureS2c
Protocol: Enzyme inhibition assays to test for colloidal inhibition were performed at room temperature using CLARIOstar Plate Reader (BMG Labtech). Samples were prepared in 50 mM KPi buffer, pH 7.0 with final DMSO concentration at 1% (v/v). Compounds were incubated with 2 nM AmpC β-lactamase (AmpC) or Malate dehydrogenase (MDH) for 5 min. AmpC reactions were initiated by the addition of 50 μM CENTA chromogenic substrate (219475, Calbiochem). […] MDH reactions were initiated by the addition of 200 μM nicotinamide adenine dinucleotide (NADH) (54839, Sigma Aldrich) and 200 μM oxaloacetic acid (324427, Sigma Aldrich). The change in absorbance was monitored at 340 nm for 60 sec. Initial rates were divided by the DMSO control rate to determine % enzyme activity. […]. Data was analyzed using GraphPad Prism 9.1.

[4] = target: T2, hCB1 (Homo sapiens, UniProt P21554); assay: Lance Ultra cAMP accumulation assay, CHO cells; assay type: cell-based; parameters: expressed in transfected cells; conditions: for cAMP assay signal, concentration-response point: replicates, sheet FigureS2a;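 as to all read-outs here: human CB1R stably expressed in CHO cells, ligands co-incubated with forskolin at room temperature, read-out is lowering of forskolin-stimulated cAMP accumulation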
[5] = target: T2, hCB1; assay: bioSensAll ebBRET signaling profiling, hCB1; assay type: cell-based; parameters: host or cells: HEK293SL cells, transient PEI transfection; conditions: for Barr2+GRK2 hCB1 response: Barr2+GRK2 biosensor; for Gi1 hCB1 / GoB hCB1: single replicate values, FigS6a; for Emax: normalized to CP-55,940
[6] = target: T1, CB1 (rCB1); assay: Radioligand competition binding, [3H]-CP-55,940, rat brain membranes

T1 sequence (P20272 whole entry): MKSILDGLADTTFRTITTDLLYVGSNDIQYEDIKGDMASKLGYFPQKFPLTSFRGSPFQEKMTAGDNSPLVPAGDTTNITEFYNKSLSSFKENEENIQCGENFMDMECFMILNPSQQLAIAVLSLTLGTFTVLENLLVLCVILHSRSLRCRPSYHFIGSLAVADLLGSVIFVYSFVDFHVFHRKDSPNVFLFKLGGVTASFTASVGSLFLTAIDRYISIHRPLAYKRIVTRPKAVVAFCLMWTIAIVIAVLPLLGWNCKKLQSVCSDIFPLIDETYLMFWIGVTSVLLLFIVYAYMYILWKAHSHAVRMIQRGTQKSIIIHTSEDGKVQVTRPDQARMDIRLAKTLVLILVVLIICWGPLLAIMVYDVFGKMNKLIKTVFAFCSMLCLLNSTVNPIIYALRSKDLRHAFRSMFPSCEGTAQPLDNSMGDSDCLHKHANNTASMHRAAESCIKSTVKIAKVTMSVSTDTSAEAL
Chain of AmpC β-lactamase (P00811 20-377): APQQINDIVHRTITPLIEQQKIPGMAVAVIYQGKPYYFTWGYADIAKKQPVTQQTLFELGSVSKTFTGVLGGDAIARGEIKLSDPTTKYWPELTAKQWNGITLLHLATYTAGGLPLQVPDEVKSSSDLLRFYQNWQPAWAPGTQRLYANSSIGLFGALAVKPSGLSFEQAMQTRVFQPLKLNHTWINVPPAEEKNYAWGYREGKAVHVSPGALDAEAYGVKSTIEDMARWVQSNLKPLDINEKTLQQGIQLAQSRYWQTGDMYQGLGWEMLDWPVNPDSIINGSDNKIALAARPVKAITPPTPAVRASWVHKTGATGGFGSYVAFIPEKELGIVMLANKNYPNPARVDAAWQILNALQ
T2 sequence (P21554 whole entry): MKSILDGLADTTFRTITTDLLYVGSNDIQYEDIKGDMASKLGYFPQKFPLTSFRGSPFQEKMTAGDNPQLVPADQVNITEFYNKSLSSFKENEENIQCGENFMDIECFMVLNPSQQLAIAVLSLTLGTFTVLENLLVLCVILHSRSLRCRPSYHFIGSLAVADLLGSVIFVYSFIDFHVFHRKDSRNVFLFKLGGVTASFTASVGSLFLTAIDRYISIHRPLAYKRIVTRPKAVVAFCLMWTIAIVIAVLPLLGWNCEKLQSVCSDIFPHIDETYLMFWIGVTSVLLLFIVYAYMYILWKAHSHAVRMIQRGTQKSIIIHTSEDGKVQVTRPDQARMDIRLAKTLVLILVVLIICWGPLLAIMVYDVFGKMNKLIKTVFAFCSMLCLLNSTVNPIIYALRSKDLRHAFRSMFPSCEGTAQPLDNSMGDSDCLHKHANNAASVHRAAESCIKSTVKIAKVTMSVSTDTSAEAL

Cn1nc(-c2nnc(C(C)(C)Oc3ccc(Cl)cc3)o2)c2ccccc2c1=O [‘0450]
% 1H-CP-55,940 displacement (mean) from single point screen ([1]; 10 µM, 1 µM or 300 nM by cell colour (not visible)): 80.28% | rep1_displacement ([1]; Figure 1c source data, replicate 1): 80.6 | rep2_displacement ([1]; Figure 1c source data, replicate 2): 81.2 | rep3_displacement ([1]; Figure 1c source data, replicate 3): 79 | DLS scattering intensity ([2]; uM] 0): 721249 and 1482870 and 678793 | DLS scattering intensity ([2]; uM] 0.5): 820738 and 723783 and 889231 | DLS scattering intensity ([2]; uM] 1): 2818066 and 935392 and 954008 | DLS scattering intensity ([2]; uM] 1.49996): 37596765 and 31006318 and 24739178 | DLS scattering intensity ([2]; uM] 2): 93917555 and 151664189 and 85385693 | DLS scattering intensity ([2]; uM] -0.500011): 759174 and 1269323 and 983915 | DLS scattering intensity ([2]; uM] -1): 623247 and 1064137 and 868483 | DLS scattering intensity ([2]; uM] -1.5): 703949 and 596678 and 546381 | AMPC activity (DMSO = 100), replicate means [3]: 142.819 and 64.3814 and 173.064 | cAMP assay signal, concentration-response point ([4]; compound 0.01 nM): 0.002801 and 0.002457 and 0.003311 | cAMP assay signal, concentration-response point ([4]; compound 0.1 nM): 0.004608* and 0.002375 and 0.002849 | cAMP assay signal, concentration-response point ([4]; compound 1 nM): 0.002336 and 0.002132 and 0.002532 | cAMP assay signal, concentration-response point ([4]; compound 10 nM): 0.002645 and 0.002538 and 0.002288 | cAMP assay signal, concentration-response point ([4]; compound 100 nM): 0.002008 and 0.002532 and 0.002421 | cAMP assay signal, concentration-response point ([4]; compound 1000 nM): 0.002545 and 0.002096 and 0.002506 | cAMP assay signal, concentration-response point ([4]; compound 10000 nM): 0.001462 and 0.001302 and 0.001515 | cAMP assay signal, concentration-response point ([4]; compound 100000 nM): 0.0002057* and 0.0001994* and 0.0002162* | agonism, inhibition of forskolin-stimulated cAMP ([4]; hCB1-expressing cells, in words): modest agonism | Barr2+GRK2 hCB1 response ([5]; Log [Compound] (M) -4.22186): 27.1048 | Barr2+GRK2 hCB1 response ([5]; Log [Compound] (M) -4.63927): -24.5851 | Barr2+GRK2 hCB1 response ([5]; Log [Compound] (M) -5.05788): -35.4335 | Barr2+GRK2 hCB1 response ([5]; Log [Compound] (M) -5.47381): -53.9398 | Barr2+GRK2 hCB1 response ([5]; Log [Compound] (M) -5.89285): -49.1537 | Barr2+GRK2 hCB1 response ([5]; Log [Compound] (M) -6.31878): -46.282 | Barr2+GRK2 hCB1 response ([5]; Log [Compound] (M) -6.72585): -46.9202 | Barr2+GRK2 hCB1 response ([5]; Log [Compound] (M) -7.14267): -54.5779 | Barr2+GRK2 hCB1 response ([5]; Log [Compound] (M) -7.55284): -56.4924 | Barr2+GRK2 hCB1 response ([5]; Log [Compound] (M) -8): -48.8346 | Barr2+GRK2 hCB1 response ([5]; Log [Compound] (M) -8.22186): -5.441 | Barr2+GRK2 hCB1 response ([5]; Log [Compound] (M) -8.39794): -31.2856 | Barr2+GRK2 hCB1 response ([5]; Log [Compound] (M) -8.68787): -55.2161 | Barr2+GRK2 hCB1 response ([5]; Log [Compound] (M) -9.15521): -35.1145 | Barr2+GRK2 hCB1 response ([5]; Log [Compound] (M) -9.61989): -47.5583 | Barr2+GRK2 hCB1 response ([5]; Log [Compound] (M) -10.0969): -52.0253 | Barr2+GRK2 hCB1 response ([5]; Log [Compound] (M) -10.5529): -34.4763 | Barr2+GRK2 hCB1 response ([5]; Log [Compound] (M) -11.0177): -42.1341 | Barr2+GRK2 hCB1 response ([5]; Log [Compound] (M) -11.4949): -48.5155 | Barr2+GRK2 hCB1 response ([5]; Log [Compound] (M) -11.9208): -49.1537 | Barr2+GRK2 hCB1 response ([5]; Log [Compound] (M) -12.3979): -55.5351 | Barr2+GRK2 hCB1 response ([5]; Log [Compound] (M) -12.8861): -37.0289 | Barr2+GRK2 hCB1 response ([5]; Log [Compound] (M) -13.3979): -10.8649 | Gi1 hCB1 ([5]; Log [Compound] (M) -4.22186): 20.433 | GoB hCB1 ([5]; Log [Compound] (M) -4.22186): 28.3973 | Gi1 hCB1 ([5]; Log [Compound] (M) -4.63927): 13.3222 | GoB hCB1 ([5]; Log [Compound] (M) -4.63927): 13.6053 | Gi1 hCB1 ([5]; Log [Compound] (M) -5.05788): 9.41 | GoB hCB1 ([5]; Log [Compound] (M) -5.05788): 19.1089 | Gi1 hCB1 ([5]; Log [Compound] (M) -5.47381): 7.763 | GoB hCB1 ([5]; Log [Compound] (M) -5.47381): 13.8657 | Gi1 hCB1 ([5]; Log [Compound] (M) -5.89285): 5.34 | GoB hCB1 ([5]; Log [Compound] (M) -5.89285): 8.258 | Gi1 hCB1 ([5]; Log [Compound] (M) -6.31878): 2.791 | GoB hCB1 ([5]; Log [Compound] (M) -6.31878): 3.397 | Gi1 hCB1 ([5]; Log [Compound] (M) -6.72585): -1.469 | GoB hCB1 ([5]; Log [Compound] (M) -6.72585): -0.5617 | Gi1 hCB1 ([5]; Log [Compound] (M) -7.14267): -3.893 | GoB hCB1 ([5]; Log [Compound] (M) -7.14267): -2.489 | Gi1 hCB1 ([5]; Log [Compound] (M) -7.55284): -6.6323 | GoB hCB1 ([5]; Log [Compound] (M) -7.55284): -6.586 | Gi1 hCB1 ([5]; Log [Compound] (M) -8): -3.861 | GoB hCB1 ([5]; Log [Compound] (M) -8): -8.513 | Gi1 hCB1 ([5]; Log [Compound] (M) -8.22186): 0.6527 | GoB hCB1 ([5]; Log [Compound] (M) -8.22186): -4.433 | Gi1 hCB1 ([5]; Log [Compound] (M) -8.39794): -6.221 | GoB hCB1 ([5]; Log [Compound] (M) -8.39794): -7.35 | Gi1 hCB1 ([5]; Log [Compound] (M) -8.68787): -4.3993 | GoB hCB1 ([5]; Log [Compound] (M) -8.68787): -5.892 | Gi1 hCB1 ([5]; Log [Compound] (M) -9.15521): -5.159 | GoB hCB1 ([5]; Log [Compound] (M) -9.15521): -7.419 | Gi1 hCB1 ([5]; Log [Compound] (M) -9.61989): -4.621 | GoB hCB1 ([5]; Log [Compound] (M) -9.61989): -5.371 | Gi1 hCB1 ([5]; Log [Compound] (M) -10.0969): -6.442 | GoB hCB1 ([5]; Log [Compound] (M) -10.0969): -8.097 | GoB hCB1 ([5]; Log [Compound] (M) -10.5529): -7.003 | Gi1 hCB1 ([5]; Log [Compound] (M) -11.0177): -5.524 | GoB hCB1 ([5]; Log [Compound] (M) -11.0177): -9.104 | Gi1 hCB1 ([5]; Log [Compound] (M) -11.4949): -5.872 | GoB hCB1 ([5]; Log [Compound] (M) -11.4949): -8.479 | Gi1 hCB1 ([5]; Log [Compound] (M) -11.9208): -6.363 | GoB hCB1 ([5]; Log [Compound] (M) -11.9208): -7.454 | Gi1 hCB1 ([5]; Log [Compound] (M) -12.3979): -5.935 | GoB hCB1 ([5]; Log [Compound] (M) -12.3979): -8.392 | Gi1 hCB1 ([5]; Log [Compound] (M) -12.8861): -4.653 | GoB hCB1 ([5]; Log [Compound] (M) -12.8861): -8.739 | Gi1 hCB1 ([5]; Log [Compound] (M) -13): -5.191 | GoB hCB1 ([5]; Log [Compound] (M) -13): -7.871 | Gi1 hCB1 ([5]; Log [Compound] (M) cell empty): -4.795 | GoB hCB1 ([5]; Log [Compound] (M) cell empty): -4.173 | pEC50 [95% CI] ([5]; hCB1 GoB): 5.6 [3.0 – 6.2] | Emax ([5]; read-out: Emax [95% CI], hCB1 Gi1): 49% | Emax ([5]; read-out: Emax [95% CI], hCB1 GoB): 36% | radioligand binding remaining, competition curve (Figure2e), replicate values ([6]; log[drug] -3.643): 3.776 and 13.0342 and 10.5924 | radioligand binding remaining, competition curve (Figure2e), replicate values ([6]; log[drug] -4.35655): -5.187 and 0.4808 and -3.246 | radioligand binding remaining, competition curve (Figure2e), replicate values ([6]; log[drug] -5.07): 1.22 and 4.986 and -3.564 | radioligand binding remaining, competition curve (Figure2e), replicate values ([6]; log[drug] -5.783): 44.8894 and 48.8782 and 38.7216 | radioligand binding remaining, competition curve (Figure2e), replicate values ([6]; log[drug] -6.496): 82.7231 and 84.8647 and 75.4685 | radioligand binding remaining, competition curve (Figure2e), replicate values ([6]; log[drug] -7.21): 103.471 and 87.6068 and 85.0402 | radioligand binding remaining, competition curve (Figure2e), replicate values ([6]; log[drug] -7.923): 98.6842 and 84.2236 and 81.6265 | radioligand binding remaining, competition curve (Figure2e), replicate values ([6]; log[drug] -8.636): 102.059 and 98.0413 and 100.669 | pKi [95% CI] ([6]; rCB1): 6.16 [5.99 – 6.34]

— paper PMC11882969 (Nature Communications, 2025)
